Measured values taken from patent US20070259439A1, “Determination of antibiotic concentration in bone” (Wyeth, priority 2006, published 2007).
“And” between values parts separate entries of the source, which are not always exact repeats. Identical values can stand only once.

Tests used:
[1] = Antibiotic bone assay (LC/MS/MS): tigecycline concentration in incurred human bone; type: in vivo
Description: Incurred Human Bone: Incurred human bone samples were from Wyeth 3074A1-117-US clinical study. Human bone samples were from the collection of patients who received Tygacil treatment and had bone replacement surgery in 2004. All bone samples were stored at −70° C.
Preparation of incurred human bone sample (incHB) QC sample: Collected large pieces of bone (5-50 g per piece) were immersed in liquid nitrogen in a double thickness 7″×8″ Bitran S series specimen bag and the bone sample was broken into 10 mm or smaller pieces using a steel hammer on a high density polyethylene dissecting borad (11″×13″). The bone pieces were then broken into smaller (approximately 5 mm or less) pieces using a large ceramic mortar and pestle. […]
Calibrators, quality control (QC) samples, and IncRB QC sample (an incurred rat bone sample used as a QC and evaluated multiple times) were prepared as described below. Due to high concentration of oxidant(s) in human bone (incurred and control bone), which can destroy tigecycline before it can be detected after extraction, preparation of calibrators, QCs and incurred samples for human bone require addition of 120 μL of 100 mM L-ascorbic acid solution to the samples (0.1 g) and incubation for 5 minutes at room temperature before adding extraction solvent. […]

[2] = 54-hour autosampler stability of extracted tigecycline from incurred human bone with ascorbic acid; type: physicochemical; details: ascorbic acid added
Description: Stability tests for tigecycline in IncRB reference QC samples or incHB QC samples were conducted in 4 cycles of freeze/thaw for IncRB QC and (3 cycles for IncHB QC of −70° C./22° C.) and in standard bench top (22° C.) stability (4 hours for rat bone and 6 hours for human bone) tests. These tests occurred during sequential extraction from run 1 through run 3. Bench top stability of IncRB reference QC samples (4 hours at room temperature) and incurred human bone sample (6 hours at room temperature), and extracted tigecycline from the IncRB and incurred human reference QC samples in the autosampler at 4° C. were evaluated during the method validation. Autosampler stability of tigecycline in IncRB Group B sample (^14C) was employed as the sample pool because aliquots from IncRB Group A were exhausted from prior testing. Results were plotted as the peak area ratio against time. The 54-hour autosampler stability of incurred human bone was performed by comparing extracted samples injected immediate after extraction (baseline) with the same set of extracted samples re-injected after 54 hours of storage at 4° C., regressed with a standard curve injected immediately after extraction (baseline).

**Q.** Which “Tigecycline concentration in incurred human bone samples” value ([1]; 24 individual samples, study 3074A1-117-US, stored approximately twenty-one months at −70° C.) does the source give for `CN(C)c1cc(NC(=O)CNC(C)(C)C)c(O)c2c1C[C@H]1C[C@H]3[C@H](N(C)C)C(O)=C(C(N)=O)C(=O)[C@@]3(O)C(O)=C1C2=O` [tigecycline, Tigecycline] here?
**A.** 492 ng/g (2×) and 550 ng/g and 665 ng/g and 431 ng/g and 628 ng/g and 269 ng/g and 290 ng/g and 335 ng/g and 238 ng/g and 240 ng/g and 433 ng/g and 560 ng/g and 362 ng/g and 491 ng/g and 595 ng/g and 258 ng/g and 323 ng/g and 421 ng/g and 411 ng/g and 626 ng/g and 281 ng/g and 439 ng/g and 794 ng/g

**Q.** And the “Inc HB QC sample concentration (incurred human bone)” value ([1]; patients who received Tygacil, nominal value = mean of 3-day global inter-day validation (n = 15))?
**A.** 257 ng/g and 257^a ng/g

**Q.** What about the “% Difference (54 hours vs initial)” value ([2]; 54 hours at 4° C.) of the same compound?
**A.** −0.7%

**Q.** What about the “Initial Concentration immediately after extraction (replicates)” value ([2]; incurred human bone) of the same compound?
**A.** 261 and 258 and 270 and 269 and 218

**Q.** And the “Re-injected sample concentration after 54-hour at 4° C. (replicates)” value ([2]; incurred human bone)?
**A.** 288 and 250 and 227 and 277 and 223

**Q.** And the “Initial Concentration immediately after extraction, Mean” value ([2]; n = 5, incurred human bone)?
**A.** 255

**Q.** And the “Re-injected sample concentration after 54-hour at 4° C., Mean” value ([2]; n = 5, incurred human bone)?
**A.** 253
